From patent publication US11207310B2 (PRILENIA NEUROTHERAPEUTICS LTD., priority 2016, dated 2021)
Read-outs that look alike come from different tables or passages of the source.

What was measured:
patients with HD [1] = settings: Week 26
Experimental: The HD-QoL is a standardized instrument for measuring health-related quality of life. […] It is a validated disease-specific measure designed for HD, and can provide a summary score of overall health-related quality of life, as well as scores on several discrete scales. […] HD-QoL can be used across the full spectrum of HD.
The change from baseline in HD-QoL and in EQSD-5L was analyzed using an Analysis of Covariance (ANCOVA) Model. The model includes the following fixed effects: treatment, center, neuroleptic use or no use, and baseline HD-QoL or EQSD-5L score. The last observation carried forward (LOCF) was applied for these endpoints for early terminated subjects.

patients with HD [2] = settings: for PBA Irritability, Severity×Frequency, change from baseline, Wk 52 Δ to placebo: BL TFC≥7
Experimental: The PBA-s is a brief semi-structured interview covering the most common behavioral and psychiatric manifestations of HD. […] Severity and frequency scores are multiplied to produce an overall ‘PBA score’ for each symptom.
The PBA-s is a brief semi-structured interview covering the most common behavioral and psychiatric manifestations of HD.
The total PBA score is calculated by the sum of all PBA-s scores across symptoms/domains.

CCCN1CCC(c2cccc(S(C)(=O)=O)c2)CC1 [pridopidine, 4-[3-(methylsulfonyl)phenyl]-1-propyl-piperidine]
Change from baseline in HD-QoL Participant Total Score, Δ to placebo (patients with HD [1]; 45 mg bid, ALL): 1.91 | HD-QoL Participant Total Score, change from baseline, Δ to placebo (patients with HD [1]; 45 mg bid, BL TFC<7, p value 0.6958): 4.87 | HD-QoL Participant Total Score, change from baseline, Δ to placebo (patients with HD [1]; 45 mg bid, BL TFC≥7, p value 0.9144): 0.51 | Change from baseline in HD-QoL Participant Total Score, Δ to placebo (patients with HD [1]; 45 mg bid, Stage 2 BL TFC 7-10): 3.22 | Change from baseline in HD-QoL Participant Total Score, Δ to placebo (patients with HD [1]; 67.5 mg bid, ALL): 8.7 | HD-QoL Participant Total Score, change from baseline, Δ to placebo (patients with HD [1]; 67.5 mg bid, BL TFC<7, p value 0.9304): 1 | HD-QoL Participant Total Score, change from baseline, Δ to placebo (patients with HD [1]; 67.5 mg bid, BL TFC≥7, p value 0.0284): 10.63 | Change from baseline in HD-QoL Participant Total Score, Δ to placebo (patients with HD [1]; 67.5 mg bid, Stage 2 BL TFC 7-10): 16.33 | Change from baseline in HD-QoL Participant Total Score, Δ to placebo (patients with HD [1]; 90 mg bid, ALL): 6.95 | HD-QoL Participant Total Score, change from baseline, Δ to placebo (patients with HD [1]; 90 mg bid, BL TFC<7, p value 0.817): 2.61 | HD-QoL Participant Total Score, change from baseline, Δ to placebo (patients with HD [1]; 90 mg bid, BL TFC≥7, p value 0.2834): 5.17 | Change from baseline in HD-QoL Participant Total Score, Δ to placebo (patients with HD [1]; 90 mg bid, Stage 2 BL TFC 7-10): 10.64 | Change from baseline in HD-QoL Participant Total Score, Δ to placebo (patients with HD [1]; 112.5 mg bid, ALL): −1.36 | HD-QoL Participant Total Score, change from baseline, Δ to placebo (patients with HD [1]; 112.5 mg bid, BL TFC<7, p value 0.7016): −4.33 | HD-QoL Participant Total Score, change from baseline, Δ to placebo (patients with HD [1]; 112.5 mg bid, BL TFC≥7, p value 0.8365): −0.99 | Change from baseline in HD-QoL Participant Total Score, Δ to placebo (patients with HD [1]; 112.5 mg bid, Stage 2 BL TFC 7-10): 4.29 | Change from baseline in PBA Depressed Mood, Severity×Frequency, Δ to placebo (patients with HD [2]; 45 mg bid, Week 26, ALL): −0.29 | PBA Disoriented Behavior, Severity×Frequency, change from baseline, Δ to placebo (patients with HD [2]; 45 mg bid, Week 26, ALL, p value 0.2864): −0.2 | PBA Obsessive-Compulsive, Severity×Frequency, change from baseline, Δ to placebo (patients with HD [2]; 45 mg bid, Week 26, ALL, p value 0.8081): 0.1 | Change from baseline in PBA Depressed Mood, Severity×Frequency, Δ to placebo (patients with HD [2]; 45 mg bid, Week 26, Stage 1 BL TFC 11-13): −0.63 | PBA Obsessive-Compulsive, Severity×Frequency, change from baseline, Δ to placebo (patients with HD [2]; 45 mg bid, Week 26, Stage 1 BL TFC 11-13, p value 0.0035): −2.11 | PBA Disoriented Behavior, Severity×Frequency, change from baseline, Δ to placebo (patients with HD [2]; 45 mg bid, Week 26, Stage 1 BL TFC 11-13, p value 0.0381): −0.19 | Change from baseline PBA Irritability, Severity×Frequency, Δ to placebo (patients with HD [2]; 45 mg bid, Week 52, ALL): −1.03 | PBA Obsessive-Compulsive, Severity×Frequency, change from baseline, Δ to placebo (patients with HD [2]; 45 mg bid, Week 52, ALL, p value 0.5733): −0.24 | PBA Irritability, Severity×Frequency, change from baseline, Δ to placebo (patients with HD [2]; 45 mg bid, Week 52, BL TFC<7, p value 0.0165): −2.42 | PBA Irritability, Severity×Frequency, change from baseline, Wk 52 Δ to placebo (patients with HD [2]; 45 mg bid, Week 52, p value 0.1789): −0.59 | PBA Obsessive-Compulsive, Severity×Frequency, change from baseline, Δ to placebo (patients with HD [2]; 45 mg bid, Week 52, Stage 1 BL TFC 11-13, p value 0.007): −2.73 | PBA Irritability, Severity×Frequency, change from baseline, Δ to placebo (patients with HD [2]; 45 mg bid, Week 52, Stage 3-5 BL TFC 0-6, p value 0.0165): −2.42 | Change from baseline in PBA Depressed Mood, Severity×Frequency, Δ to placebo (patients with HD [2]; 67.5 mg bid, Week 26, ALL): −0.65 | PBA Disoriented Behavior, Severity×Frequency, change from baseline, Δ to placebo (patients with HD [2]; 67.5 mg bid, Week 26, ALL, p value 0.1357): −0.28 | PBA Obsessive-Compulsive, Severity×Frequency, change from baseline, Δ to placebo (patients with HD [2]; 67.5 mg bid, Week 26, ALL, p value 0.2512): −0.45 | Change from baseline in PBA Depressed Mood, Severity×Frequency, Δ to placebo (patients with HD [2]; 67.5 mg bid, Week 26, Stage 1 BL TFC 11-13): −2.01 | PBA Obsessive-Compulsive, Severity×Frequency, change from baseline, Δ to placebo (patients with HD [2]; 67.5 mg bid, Week 26, Stage 1 BL TFC 11-13, p value 0.0035): −2.03 | PBA Disoriented Behavior, Severity×Frequency, change from baseline, Δ to placebo (patients with HD [2]; 67.5 mg bid, Week 26, Stage 1 BL TFC 11-13, p value 0.0615): −0.16 | Change from baseline PBA Irritability, Severity×Frequency, Δ to placebo (patients with HD [2]; 67.5 mg bid, Week 52, ALL): −0.63 | PBA Obsessive-Compulsive, Severity×Frequency, change from baseline, Δ to placebo (patients with HD [2]; 67.5 mg bid, Week 52, ALL, p value 0.5068): −0.28 | PBA Irritability, Severity×Frequency, change from baseline, Δ to placebo (patients with HD [2]; 67.5 mg bid, Week 52, BL TFC<7, p value 0.0429): −1.78 | PBA Irritability, Severity×Frequency, change from baseline, Wk 52 Δ to placebo (patients with HD [2]; 67.5 mg bid, Week 52, p value 0.466): −0.33 | PBA Obsessive-Compulsive, Severity×Frequency, change from baseline, Δ to placebo (patients with HD [2]; 67.5 mg bid, Week 52, Stage 1 BL TFC 11-13, p value 0.0011): −3.24 | PBA Irritability, Severity×Frequency, change from baseline, Δ to placebo (patients with HD [2]; 67.5 mg bid, Week 52, Stage 3-5 BL TFC 0-6, p value 0.0429): −1.78 | Change from baseline in PBA Depressed Mood, Severity×Frequency, Δ to placebo (patients with HD [2]; 90 mg bid, Week 26, ALL): −0.34 | PBA Disoriented Behavior, Severity×Frequency, change from baseline, Δ to placebo (patients with HD [2]; 90 mg bid, Week 26, ALL, p value 0.607): −0.09 | PBA Obsessive-Compulsive, Severity×Frequency, change from baseline, Δ to placebo (patients with HD [2]; 90 mg bid, Week 26, ALL, p value 0.7541): −0.12 | Change from baseline in PBA Depressed Mood, Severity×Frequency, Δ to placebo (patients with HD [2]; 90 mg bid, Week 26, Stage 1 BL TFC 11-13): −0.84 | PBA Obsessive-Compulsive, Severity×Frequency, change from baseline, Δ to placebo (patients with HD [2]; 90 mg bid, Week 26, Stage 1 BL TFC 11-13, p value 0.0251): −1.71
